Measurements: ChEMBL document CHEMBL1201862, “PubChem BioAssay data set” (2004)
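Growth conditions: 96-well plates. Treatment: test compound, 48 hours, 5 concentrations. Analysis: linear interpolation between bracketing concentrations; unreached endpoints set to highest concentration. GI50 marks 50% less growth.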 Active and inactive are the calls of the source. Cut-off read from the data, not from the text of the source: active = GI50 up to about 1.1 µM and inactive = higher.

Tests used:
Test in all cases: DTP human tumour cell line panel, 48 h
OVCAR-8 = system: OVCAR-8
OVCAR-4 = system: OVCAR-4
KM12 = system: KM12
HCC 2998 = system: HCC 2998
ACHN = system: ACHN
DMS-114 = system: DMS-114
UACC-62 = system: UACC-62
M14 = system: M14
XF498 = system: XF498
SF-539 = system: SF-539
SR = system: SR
K562 = system: K562
NCI-H226 = system: NCI-H226
DMS-273 = system: DMS-273
IGROV-1 = system: IGROV-1
CAKI-1 = system: CAKI-1
LOX IMVI = system: LOX IMVI
HOP-18 = system: HOP-18
NCI/ADR-RES = system: NCI/ADR-RES
PC-3 = system: PC-3

| Compound | GI50 (OVCAR-8) | GI50 (OVCAR-4) | GI50 (KM12) | GI50 (HCC 2998) | GI50 (ACHN) | GI50 (DMS-114) | GI50 (UACC-62) | GI50 (M14) | GI50 (XF498) | GI50 (SF-539) | GI50 (SR) | GI50 (K562) | GI50 (NCI-H226) | GI50 (DMS-273) | GI50 (IGROV-1) | GI50 (CAKI-1) | GI50 (LOX IMVI) | GI50 (HOP-18) | GI50 (NCI/ADR-RES) | GI50 (PC-3) |
| --- | --- | --- | --- | --- | --- | --- | --- | --- | --- | --- | --- | --- | --- | --- | --- | --- | --- | --- | --- | --- |
| O=C(Nc1ccc(F)cc1)C(=O)C(C(=O)c1ccccc1F)C1OC(=O)c2ccccc21 (stereo not given) | 43 µM (inactive) | 55.3 µM (inactive) | 79.4 µM (inactive) | 38.5 µM (inactive) | > 100 µM (inactive) | 45.5 µM (inactive) | 39.9 µM (inactive) | > 100 µM (inactive) | 50.8 µM (inactive) | 31 µM (inactive) | 19.8 µM (inactive) | 34.7 µM (inactive) | 21.4 µM (inactive) | 43.3 µM (inactive) | > 100 µM (inactive) | > 100 µM (inactive) | 35.6 µM (inactive) |  |  |  |
| CCOCc1cc(=O)c2c(O)cc3c(c2o1)CCC(C)(C)O3 | > 100 µM (inactive) |  |  |  | > 100 µM (inactive) | > 100 µM (inactive) | > 100 µM (inactive) | > 100 µM (inactive) |  | > 100 µM (inactive) |  | > 100 µM (inactive) | > 100 µM (inactive) | > 100 µM (inactive) | > 100 µM (inactive) | > 100 µM (inactive) | > 100 µM (inactive) | > 100 µM (inactive) |  |  |
| COc1cc(S(=O)(=O)Nc2ccc(-c3csc(N4C(=O)C(C)SC4c4cccc(Oc5ccccc5)c4)n3)cc2)ccc1Cl (stereo not given) | 37.5 µM (inactive) |  | 34.5 µM (inactive) |  | 57.8 µM (inactive) |  | 28.4 µM (inactive) | 34.7 µM (inactive) |  | 27.6 µM (inactive) | 26.3 µM (inactive) | 36.5 µM (inactive) | 27.1 µM (inactive) |  | 39 µM (inactive) | 46 µM (inactive) | 32.4 µM (inactive) |  | > 100 µM (inactive) | 43.9 µM (inactive) |
| O=[S@@]1Nc2ccc(Br)cc2S1 |  |  | 2.48 µM (inactive) |  | 1.07 µM (active) |  | 1.07 µM (active) | 1.4 µM (inactive) | > 100 µM (inactive) | 3.94 µM (inactive) | 7.14 µM (inactive) | 0.766 µM (active) | > 100 µM (inactive) | 1.73 µM (inactive) | 53 µM (inactive) | 1.15 µM (inactive) | 0.437 µM (active) |  |  |  |
| CCN1CCCCC(=N\O)/C(=N/O)CCCC1 | > 100 µM (inactive) | > 100 µM (inactive) | > 100 µM (inactive) |  | > 100 µM (inactive) |  | > 100 µM (inactive) | > 100 µM (inactive) |  | > 100 µM (inactive) | > 100 µM (inactive) |  | > 100 µM (inactive) |  | > 100 µM (inactive) | > 100 µM (inactive) | > 100 µM (inactive) |  | > 100 µM (inactive) | > 100 µM (inactive) |
| CCOC(=O)c1cccc(NC(=O)CBr)c1 | 1.11 µM (active) | 1.53 µM (inactive) | 1.79 µM (inactive) | 2.3 µM (inactive) | 1.56 µM (inactive) |  | 1.42 µM (inactive) | 1.3 µM (inactive) |  | 0.984 µM (active) | 0.206 µM (active) | 0.362 µM (active) | 0.76 µM (active) |  | 0.959 µM (active) | 0.618 µM (active) | 0.0904 µM (active) |  | 2.04 µM (inactive) | 1.55 µM (inactive) |
| CCOC(=O)C(Cc1c(-c2[nH]c3ccccc3c2CC(NC(=O)CNC(C)=O)C(=O)OCC)[nH]c2ccccc12)NC(=O)CNC(C)=O (stereo not given) |  | > 100 µM (inactive) | > 100 µM (inactive) | 23.1 µM (inactive) |  |  | 74.3 µM (inactive) | 71.6 µM (inactive) |  |  | 40.4 µM (inactive) |  |  |  | > 100 µM (inactive) | > 100 µM (inactive) |  |  |  | > 100 µM (inactive) |
| Clc1ccc(N/N=C(\c2ccccc2)c2ccccn2)nc1 | < 0.01 µM (active) | 3.04 µM (inactive) | 0.348 µM (active) | 3.81 µM (inactive) | < 0.01 µM (active) |  | 0.214 µM (active) | < 0.01 µM (active) |  | 0.622 µM (active) | 0.114 µM (active) |  | 0.0891 µM (active) |  | 0.0239 µM (active) | < 0.01 µM (active) |  |  | < 0.0165 µM (active) | 0.0463 µM (active) |
| CC(=O)N(C(=O)CC(=O)N1N=C(C)C(/N=N/c2cccc([N+](=O)[O-])c2)C1=O)c1ccc(Cl)cc1 (stereo not given) | > 10 µM (inactive) | > 10 µM (inactive) | > 10 µM (inactive) | > 10 µM (inactive) | > 10 µM (inactive) |  | > 10 µM (inactive) | > 10 µM (inactive) |  | > 10 µM (inactive) | > 10 µM (inactive) | > 10 µM (inactive) |  |  | > 10 µM (inactive) | > 10 µM (inactive) | > 10 µM (inactive) |  | > 10 µM (inactive) | > 10 µM (inactive) |
| Cc1cc(C)c(C2=NO[C@@H]3[C@H]2C(=O)C=C2N(Cc4ccccc4)CCO[C@@]23O)c(C)c1 | > 100 µM (inactive) | > 100 µM (inactive) | > 100 µM (inactive) | > 100 µM (inactive) |  |  | > 100 µM (inactive) |  | > 100 µM (inactive) | > 100 µM (inactive) |  | > 100 µM (inactive) | > 100 µM (inactive) | > 100 µM (inactive) | > 100 µM (inactive) | 1 µM (active) | > 100 µM (inactive) | > 100 µM (inactive) | > 100 µM (inactive) |  |
| COc1cc(/C=C(\C)[N+](=O)[O-])cc(OC)c1 | 15.6 µM (inactive) | 18.1 µM (inactive) | 19.3 µM (inactive) | 25.1 µM (inactive) | 16.4 µM (inactive) |  | 14.6 µM (inactive) | 14.8 µM (inactive) |  | 9.18 µM (inactive) | 3.01 µM (inactive) | 2.69 µM (inactive) | > 52.5 µM (inactive) |  | 6.46 µM (inactive) | 14.5 µM (inactive) | 3.08 µM (inactive) |  | 20.2 µM (inactive) | 20.1 µM (inactive) |
| C[C@H](C(=O)O)C(=O)NC(=O)N(Cc1ccccc1)N=O | > 100 µM (inactive) | > 100 µM (inactive) | > 100 µM (inactive) | > 100 µM (inactive) | > 100 µM (inactive) | > 100 µM (inactive) | > 100 µM (inactive) | > 100 µM (inactive) | > 100 µM (inactive) | > 100 µM (inactive) |  | 88.3 µM (inactive) |  | > 100 µM (inactive) | > 100 µM (inactive) | > 100 µM (inactive) | > 100 µM (inactive) | 0.0525 µM (active) |  |  |
| CN(C(=O)C12C3C4C1C1C2C3C41C(=O)C(C)(C)C)C(C)(C)C (stereo not given) | > 100 µM (inactive) | > 100 µM (inactive) | > 100 µM (inactive) | > 100 µM (inactive) | > 100 µM (inactive) | > 100 µM (inactive) | > 100 µM (inactive) | > 100 µM (inactive) | > 100 µM (inactive) | > 100 µM (inactive) |  | > 100 µM (inactive) |  | > 100 µM (inactive) | > 100 µM (inactive) | > 100 µM (inactive) | > 100 µM (inactive) |  |  |  |
| O=S(O)c1cc(Cl)cc(Cl)c1O |  | > 100 µM (inactive) | > 100 µM (inactive) | > 100 µM (inactive) | > 100 µM (inactive) | 80.9 µM (inactive) | > 100 µM (inactive) | > 100 µM (inactive) | > 100 µM (inactive) | > 100 µM (inactive) |  | > 100 µM (inactive) |  |  |  |  | > 100 µM (inactive) |  |  |  |
| CN(C)CCNC(=O)c1ccc(Cl)c2ccc(-c3ccccc3)nc12 | 2.57 µM (inactive) | 3.54 µM (inactive) | 4.47 µM (inactive) | 4.67 µM (inactive) |  |  | 2.69 µM (inactive) |  | 3.16 µM (inactive) | 3.66 µM (inactive) |  | 2.27 µM (inactive) | 2.32 µM (inactive) | 3 µM (inactive) | 3.48 µM (inactive) | 2.69 µM (inactive) | 2.34 µM (inactive) | 3.26 µM (inactive) | 2.42 µM (inactive) |  |
| c1ccc(Nc2nnc(CCCCCCCCc3nnc(Nc4ccccc4)o3)o2)cc1 | > 100 µM (inactive) | > 100 µM (inactive) | > 100 µM (inactive) | 51.6 µM (inactive) | > 100 µM (inactive) |  |  | > 100 µM (inactive) |  | > 100 µM (inactive) |  | > 100 µM (inactive) | > 100 µM (inactive) |  | 60.3 µM (inactive) | > 100 µM (inactive) | > 100 µM (inactive) |  | > 100 µM (inactive) | > 100 µM (inactive) |
| NC(CCOCCP(=O)(O)CCOCCC(N)C(=O)O)C(=O)O (stereo not given) | > 100 µM (inactive) | > 100 µM (inactive) | > 100 µM (inactive) | > 100 µM (inactive) | > 100 µM (inactive) |  | > 100 µM (inactive) | > 100 µM (inactive) |  | > 100 µM (inactive) | > 100 µM (inactive) | > 100 µM (inactive) |  |  | > 100 µM (inactive) | > 100 µM (inactive) |  |  | > 100 µM (inactive) |  |
| O=S(O)CCCCSSCCCCS(=O)(=O)S | 37.8 µM (inactive) | 25.5 µM (inactive) | 67.6 µM (inactive) | > 100 µM (inactive) | 72.6 µM (inactive) | 39.4 µM (inactive) | 18 µM (inactive) | 15.7 µM (inactive) | 15.3 µM (inactive) | 98.6 µM (inactive) |  | 32.1 µM (inactive) |  | 50.9 µM (inactive) | > 100 µM (inactive) | > 100 µM (inactive) | 27.4 µM (inactive) | 84.3 µM (inactive) |  |  |
| COCC1N=C(c2cc(OC)c(OC)c(OC)c2-c2cc3c(cc2[C@@H](C)O)OCO3)O[C@H]1c1ccccc1 (stereo not given in full) | > 74.5 µM (inactive) | 37.6 µM (inactive) | > 100 µM (inactive) | > 100 µM (inactive) |  |  | 33.6 µM (inactive) |  |  | 77.4 µM (inactive) |  | > 100 µM (inactive) | > 77.1 µM (inactive) | > 71.9 µM (inactive) | > 68.9 µM (inactive) | 99.8 µM (inactive) | > 100 µM (inactive) | > 86.5 µM (inactive) | 40.2 µM (inactive) |  |
